Measured values from article PMC10971446 (Marine Drugs, 2024).
Where a SMILES comes first, the peptide text is derived from it. Bridges are numbered along the chain shown (N, C = ends). [ ]: non-standard residue; d: D form. pGlu = O=C1CC[C@@H](C(=O)O)N1

Legend:
mouse α6/α3β4 nAChR = mouse α6/α3β4 nAChR (Mus musculus, UniProt Q8R493+Q8R4G9+Q9R0W9); assay type: cell-based
[1] = tested on: ACh+PNU-responsive mouse DRG neurons (α7 nAChR); assay type: cell-based
α7 nAChR = conditions: cited from earlier work
mouse DRG neurons = conditions: cited from earlier work

Chain of mouse α6/α3β4 nAChR (Q8R493 whole entry, looked up): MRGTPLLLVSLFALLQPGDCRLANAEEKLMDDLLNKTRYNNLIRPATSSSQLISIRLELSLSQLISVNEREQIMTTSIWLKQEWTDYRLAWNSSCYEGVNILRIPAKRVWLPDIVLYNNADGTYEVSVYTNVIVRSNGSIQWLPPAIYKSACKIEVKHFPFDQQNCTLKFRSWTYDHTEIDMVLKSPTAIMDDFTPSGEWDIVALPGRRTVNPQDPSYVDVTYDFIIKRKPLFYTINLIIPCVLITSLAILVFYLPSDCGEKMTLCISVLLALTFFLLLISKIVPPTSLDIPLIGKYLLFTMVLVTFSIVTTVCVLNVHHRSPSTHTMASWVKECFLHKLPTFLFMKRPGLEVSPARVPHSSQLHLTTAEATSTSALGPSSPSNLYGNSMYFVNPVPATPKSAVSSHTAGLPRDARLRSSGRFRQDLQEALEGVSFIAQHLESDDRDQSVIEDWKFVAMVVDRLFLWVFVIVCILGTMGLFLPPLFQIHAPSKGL
Chain of mouse α6/α3β4 nAChR (Q8R4G9 whole entry, looked up): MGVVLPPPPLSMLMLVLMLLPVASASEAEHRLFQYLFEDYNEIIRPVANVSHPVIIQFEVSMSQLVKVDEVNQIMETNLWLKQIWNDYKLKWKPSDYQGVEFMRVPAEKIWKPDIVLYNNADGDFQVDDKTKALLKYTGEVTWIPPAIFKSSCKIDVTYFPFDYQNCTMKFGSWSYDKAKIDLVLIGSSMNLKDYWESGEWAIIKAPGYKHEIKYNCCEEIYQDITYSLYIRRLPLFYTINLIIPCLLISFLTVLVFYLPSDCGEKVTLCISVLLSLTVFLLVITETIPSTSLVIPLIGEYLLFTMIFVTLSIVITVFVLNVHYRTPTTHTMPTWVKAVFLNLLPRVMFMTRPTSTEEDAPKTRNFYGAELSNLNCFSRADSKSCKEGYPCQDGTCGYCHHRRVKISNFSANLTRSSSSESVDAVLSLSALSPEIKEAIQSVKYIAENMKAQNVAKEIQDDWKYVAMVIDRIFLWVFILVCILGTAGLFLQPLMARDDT
Chain of mouse α6/α3β4 nAChR (Q9R0W9 whole entry, looked up): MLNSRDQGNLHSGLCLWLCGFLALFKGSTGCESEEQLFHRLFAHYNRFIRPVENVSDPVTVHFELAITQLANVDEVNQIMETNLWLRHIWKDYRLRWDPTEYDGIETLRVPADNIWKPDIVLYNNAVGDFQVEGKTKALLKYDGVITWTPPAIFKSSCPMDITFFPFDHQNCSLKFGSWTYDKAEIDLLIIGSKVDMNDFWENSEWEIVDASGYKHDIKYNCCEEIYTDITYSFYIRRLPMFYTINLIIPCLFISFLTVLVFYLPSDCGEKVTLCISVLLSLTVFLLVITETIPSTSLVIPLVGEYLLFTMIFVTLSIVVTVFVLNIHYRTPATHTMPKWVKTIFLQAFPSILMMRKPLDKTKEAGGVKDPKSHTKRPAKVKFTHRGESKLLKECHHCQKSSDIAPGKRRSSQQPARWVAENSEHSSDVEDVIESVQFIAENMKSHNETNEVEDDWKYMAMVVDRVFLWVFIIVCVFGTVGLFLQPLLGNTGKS

CC(C)C[C@@H]1NC(=O)[C@H](CCC(=O)O)NC(=O)[C@@H]2CCCN2C(=O)[C@H](Cc2c[nH]cn2)NC(=O)[C@H](CC(N)=O)NC(=O)[C@H](C(C)C)NC(=O)[C@H](CO)NC(=O)[C@@H]2CSSC[C@H](NC(=O)CNC(=O)[C@@H]3CCC(=O)N3)C(=O)N[C@@H](CSSC[C@@H](C(=O)N[C@@H](Cc3c[nH]c4ccccc34)C(=O)O)NC1=O)C(=O)N[C@@H](CO)C(=O)N[C@@H](Cc1c[nH]cn1)C(=O)N1CCC[C@H]1C(=O)N[C@@H](C)C(=O)N2 [αCtx-AtIA] ([pGlu]GCCSHPACSVNHPELCW-OH; disulfide 3-9, 4-17)
loss of potency on α6/α3β4 compared to αCtx-PeIA (mouse α6/α3β4 nAChR): ~ 5 fold

PNU-120596
calcium response to ACh alone or ACh+PNU in α7-expressing DRG neurons [1]: co-application of ACh and PNU uncovered a calcium response | α7 modulation (α7 nAChR): α7 positive allosteric modulator

CC(=O)OCC[N+](C)(C)C [ACh, acetylcholine]
calcium response to ACh alone or ACh+PNU in α7-expressing DRG neurons [1]: did not cause calcium influx in these cells | calcium response of DRG neurons to agonist (mouse DRG neurons): a subset of mouse DRG neurons responds to serial application of 1 mM acetylcholine (ACh) with elevation of intracellular calcium
